According to PubChem BioAssay AID1918994 (Molecular Pharmacology Branch, DTP, NCI, 2023):

Tested on: 292921-168-R-J2-PDC complex spheroid growth
Assay: Anticancer human tumor 292921-168-R-J2-PDC patient-derived pancreatic carcinoma cell line growth inhibition [AhR]
Conditions: for IC50: curve of first compound; for viability, T/C: stronger effect = lower value
Summary of the method: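 Agents were dosed in half-log steps down from roughly clinical Cmax, or from 10 microM where Cmax was unknown, alone and with AhR antagonists. Read-out: percent test/control growth of tumor spheroids containing HUVEC and MSC stromal cells.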

[1] = second compound 0.1 µM, first compound 0.0316 µM
[2] = second compound 0.1 µM, first compound 0.1 µM
[3] = second compound 0.1 µM, first compound 0.316 µM
[4] = second compound 0.1 µM, first compound 1 µM
[5] = second compound 0.316 µM, first compound 0.0316 µM
[6] = second compound 0.316 µM, first compound 0.1 µM
[7] = second compound 0.316 µM, first compound 0.316 µM
[8] = second compound 0.316 µM, first compound 1 µM
[9] = second compound 1 µM, first compound 0.0316 µM
[10] = second compound 1 µM, first compound 0.1 µM
[11] = second compound 1 µM, first compound 0.316 µM
[12] = second compound 1 µM, first compound 1 µM
[13] = second compound 3.16 µM, first compound 0.0316 µM
[14] = second compound 3.16 µM, first compound 0.1 µM
[15] = second compound 3.16 µM, first compound 0.316 µM
[16] = second compound 3.16 µM, first compound 1 µM
[17] = second compound 10 µM, first compound 0.0316 µM
[18] = second compound 10 µM, first compound 0.1 µM
[19] = second compound 10 µM, first compound 0.316 µM
[20] = second compound 10 µM, first compound 1 µM
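Further: spheroids exposed to compounds for seven days after three days of growth.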

CC1COCCN1c1cc(-c2ccnn2C)c2ccnc(-c3ccn[nH]3)c2n1 (stereo not given) + Cc1cncc(-c2nc(NCCc3c[nH]c4ccccc34)c3ncn(C(C)C)c3n2)c1
IC50 (second compound 0.1 µM): 48 nM | IC50 (second compound 0.316 µM): 43.4 nM | IC50 (second compound 1 µM): 40.8 nM | IC50 (second compound 3.16 µM): 32.1 nM | IC50 (second compound 10 µM): < 3.16 nM | viability, T/C (second compound 0.1 µM, first compound 0.00316 µM): 87.5% | viability, T/C (second compound 0.1 µM, first compound 0.01 µM): 82.6% | viability, T/C [1]: 60% | viability, T/C [2]: 31.8% | viability, T/C [3]: 22.5% | viability, T/C [4]: 18.1% | viability, T/C (second compound 0.316 µM, first compound 0.00316 µM): 88.3% | viability, T/C (second compound 0.316 µM, first compound 0.01 µM): 78.6% | viability, T/C [5]: 56.8% | viability, T/C [6]: 32.7% | viability, T/C [7]: 18.7% | viability, T/C [8]: 17% | viability, T/C (second compound 1 µM, first compound 0.00316 µM): 74.5% | viability, T/C (second compound 1 µM, first compound 0.01 µM): 73% | viability, T/C [9]: 55.2% | viability, T/C [10]: 30% | viability, T/C [11]: 18.7% | viability, T/C [12]: 17.1% | viability, T/C (second compound 3.16 µM, first compound 0.00316 µM): 60.3% | viability, T/C (second compound 3.16 µM, first compound 0.01 µM): 64.1% | viability, T/C [13]: 49.7% | viability, T/C [14]: 25.4% | viability, T/C [15]: 17.9% | viability, T/C [16]: 17.9% | viability, T/C (second compound 10 µM, first compound 0.00316 µM): 41% | viability, T/C (second compound 10 µM, first compound 0.01 µM): 48.1% | viability, T/C [17]: 44.9% | viability, T/C [18]: 33.2% | viability, T/C [19]: 25.8% | viability, T/C [20]: 22.2%

CC1COCCN1c1cc(C2(S(C)(=N)=O)CC2)nc(-c2ccnc3[nH]ccc23)n1 (stereo not given) + Cc1cncc(-c2nc(NCCc3c[nH]c4ccccc34)c3ncn(C(C)C)c3n2)c1
IC50 (second compound 0.1 µM): 3610 nM | IC50 (second compound 0.316 µM): 3000 nM | IC50 (second compound 1 µM): 2580 nM | IC50 (second compound 3.16 µM): 1940 nM | IC50 (second compound 10 µM): 31.6 nM | viability, T/C [1]: 89.8% | viability, T/C [2]: 87.6% | viability, T/C [3]: 95.8% | viability, T/C [4]: 76.9% | viability, T/C (second compound 0.1 µM, first compound 3.16 µM): 54.2% | viability, T/C (second compound 0.1 µM, first compound 10 µM): 24.7% | viability, T/C [5]: 86.5% | viability, T/C [6]: 80.5% | viability, T/C [7]: 73.3% | viability, T/C [8]: 80.2% | viability, T/C (second compound 0.316 µM, first compound 3.16 µM): 48.6% | viability, T/C (second compound 0.316 µM, first compound 10 µM): 24.7% | viability, T/C [9]: 77.2% | viability, T/C [10]: 80.6% | viability, T/C [11]: 88.4% | viability, T/C [12]: 70% | viability, T/C (second compound 1 µM, first compound 3.16 µM): 45.9% | viability, T/C (second compound 1 µM, first compound 10 µM): 24.5% | viability, T/C [13]: 63.3% | viability, T/C [14]: 63.3% | viability, T/C [15]: 66.9% | viability, T/C [16]: 59.6% | viability, T/C (second compound 3.16 µM, first compound 3.16 µM): 42.6% | viability, T/C (second compound 3.16 µM, first compound 10 µM): 25.4% | viability, T/C [17]: 48.6% | viability, T/C [18]: 45.9% | viability, T/C [19]: 50% | viability, T/C [20]: 50.4% | viability, T/C (second compound 10 µM, first compound 3.16 µM): 38.8% | viability, T/C (second compound 10 µM, first compound 10 µM): 29.4%
